Results from patent publication US10988459B2 (priority 2015, dated 2021).

target: human RIP1 kinase domain (2-375) (Homo sapiens (Human), UniProt Q13546); experiment: biochemical; assay type: biochemical; settings: Table 1; apparent Ki (Morrison tight-binding fit); 50 nM RIP1 kinase domain, 50 uM ATP, 2 hours incubation; read-out: RIP1 Ki
Method in brief: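 50 nM purified kinase domain from baculovirus-infected insect cells, incubated 2 h with compound in 50 mM Hepes pH 7.5, 30 mM MgCl2, 1 mM DTT, 50 uM ATP, 0.002% Brij-35, 0.5% DMSO. ADP formation read by Transcreener FP at 633 nm excitation. Ki^app fitted with the Morrison tight-binding equation.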

Sequence of human RIP1 kinase domain (2-375) (Q13546 2-375): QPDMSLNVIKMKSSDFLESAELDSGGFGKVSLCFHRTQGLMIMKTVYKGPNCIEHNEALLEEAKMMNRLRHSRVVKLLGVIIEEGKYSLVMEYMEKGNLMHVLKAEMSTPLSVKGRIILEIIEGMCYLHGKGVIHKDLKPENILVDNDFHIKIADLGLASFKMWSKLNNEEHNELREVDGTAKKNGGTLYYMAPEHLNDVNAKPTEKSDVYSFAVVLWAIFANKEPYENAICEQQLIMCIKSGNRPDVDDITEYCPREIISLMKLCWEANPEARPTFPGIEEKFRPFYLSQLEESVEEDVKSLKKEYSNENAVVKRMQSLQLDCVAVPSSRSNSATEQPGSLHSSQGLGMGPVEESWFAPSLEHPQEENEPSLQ

Row | Compound | Ki
1 | CN1C(=O)[C@@H](NC(=O)c2n[nH]c3c2CN(CC(F)(F)F)CC3)COc2ccccc21 [Example 5, (S)—N-(5-methyl-4-oxo-2,3,4,5-tetrahydrobenzo[b][1,4]oxazepin-3-yl)-5-(2,2,2-trifluoroethyl)-4,5,6,7-tetrahydro-1H-pyrazolo[4,3-c]pyridine-3-carboxamide] | 1500 nM
2 | CN1C(=O)[C@@H](NC(=O)c2n[nH]c3c2CCCCC3)COc2ccccc21 [Example 44, (S)-N-(5-methyl-4-oxo-2,3,4,5-tetrahydrobenzo[b][1,4]oxazepin-3-yl)-1,4,5,6,7,8-hexahydrocyclohepta[c]pyrazole-3-carboxamide] | 3000 nM
3 | O=C(N[C@H]1COc2ccccc2NC1=O)c1n[nH]c2c1C1CC1CC2 (stereo partly drawn) [Example 54, N-((S)-4-oxo-2,3,4,5-tetrahydrobenzo[b][1,4]oxazepin-3-yl)-3,4,5,5a,6,6a-hexahydrocyclopropa[e]indazole-1-carboxamide] | 7700 nM
4 | O=C(N[C@H]1COc2ccccc2NC1=O)c1n[nH]c2c1CC1CC1C2 (stereo partly drawn) [Example 4, N—((S)-4-oxo-2,3,4,5-tetrahydrobenzo[b][1,4]oxazepin-3-yl)-1,4,4a,5,5a,6-hexahydrocyclopropa[f]indazole-3-carboxamide] | 5500 nM
5 | CC12Cc3[nH]nc(C(=O)N[C@H]4CCc5cc(Cl)ccc5NC4=O)c3CC1C2 (stereo partly drawn) [Example 50, N-((S)-7-chloro-2-oxo-2,3,4,5-tetrahydro-1H-benzo[b]azepin-3-yl)-5a-methyl-1,4,4a,5,5a,6-hexahydrocyclopropa[f]indazole-3-carboxamide] | 3900 nM
6 | C[C@H]1CCc2onc(C(=O)N[C@H]3COc4ccccc4N(C)C3=O)c2C1 [Example 68, (S)-5-methyl-N-((S)-5-methyl-4-oxo-2,3,4,5-tetrahydrobenzo[b][1,4]oxazepin-3-yl)-4,5,6,7-tetrahydrobenzo[d]isoxazole-3-carboxamide] | 53.8 nM

same assay, conditions: Table 5; apparent Ki (Morrison tight-binding fit); 50 nM RIP1 kinase domain, 50 uM ATP, 2 hours incubation; read-out: Ki

Row | Ki | Compound
7 | 61 nM | CN1C(=O)[C@@H](NC(=O)c2ncn(Cc3ccccc3)n2)CCn2nc(CO)cc21 (single isomer, unassigned) [Example 732]

same assay, conditions: human RIP1 kinase domain (2-375), 50 uM ATP, 2 hours incubation, Transcreener ADP assay; read-out: RIP1 Ki

Row | Ki | Compound
8 | 1900 nM | CN1C(=O)C(NC(=O)c2ccn(Cc3ccc(F)c(F)c3)n2)CCn2ccnc21 (stereo not shown) [Example 177, 1-(3,4-difluorobenzyl)-N-(9-methyl-8-oxo-6,7,8,9-tetrahydro-5H-imidazo[1,2-a][1,3]diazepin-7-yl)-1H-pyrazole-3-carboxamide]
9 | 189 nM | CC(c1ccccc1)c1nnc(C(=O)N[C@H]2CCn3nccc3N(C)C2=O)[nH]1 (stereo partly drawn) [Example 100, N—((S)-4-methyl-5-oxo-5,6,7,8-tetrahydro-4H-pyrazolo[1,5-a][1,3]diazepin-6-yl)-5-(1-phenylethyl)-4H-1,2,4-triazole-3-carboxamide]
10 | 407 nM | CCn1nc(C(=O)N[C@H]2COc3ccccc3N(C)C2=O)c2c1CC[C@@H](C(F)(F)F)C2 (single isomer, unassigned) [Example 184]
11 | 986 nM | Cc1cc2n(n1)CC[C@H](NC(=O)c1ncn([C@H](C)c3ccccc3)n1)C(=O)N2C [Example 158, N-((S)-2,4-dimethyl-5-oxo-5,6,7,8-tetrahydro-4H-pyrazolo[1,5-a][1,3]diazepin-6-yl)-1-((R)-1-phenylethyl)-1H-1,2,4-triazole-3-carboxamide]

same assay, conditions: human RIP1 kinase domain (2-375), Transcreener ADP assay, 50 uM ATP, 2 hours incubation; read-out: RIP1 Ki

Row | Ki | Compound
12 | 226 nM | CN1C(=O)C(NC(=O)c2n[nH]c(Cc3ccccc3)n2)CCn2nc(C3CCOCC3)cc21 (stereo not shown) [Example 235, 5-benzyl-N-(4-methyl-5-oxo-2-(tetrahydro-2H-pyran-4-yl)-5,6,7,8-tetrahydro-4H-pyrazolo[1,5-a][1,3]diazepin-6-yl)-1H-1,2,4-triazole-3-carboxamide]
13 | 782 nM | CC[C@@]1(C)OCc2cnc(C(=O)N[C@H]3CCn4nc(C5CC5)cc4N(C)C3=O)cc21 [Example 245, (R)—N—((S)-2-cyclopropyl-4-methyl-5-oxo-5,6,7,8-tetrahydro-4H-pyrazolo[1,5-a][1,3]diazepin-6-yl)-1-ethyl-1-methyl-1,3-dihydrofuro[3,4-c]pyridine-6-carboxamide]
14 | 1000 nM | Cc1cc2n(n1)CCC(NC(=O)c1ncn(CCC(F)(F)F)n1)C(=O)N2C (stereo not shown) [Example 250, N-(2,4-dimethyl-5-oxo-5,6,7,8-tetrahydro-4H-pyrazolo[1,5-a][1,3]diazepin-6-yl)-1-(3,3,3-trifluoropropyl)-1H-1,2,4-triazole-3-carboxamide]
15 | 421 nM | CN1C(=O)C(NC(=O)c2ncn(CC3CCC(F)(F)CC3)n2)CCn2nc(C3CC3)cc21 (stereo not shown) [Example 255, N-(2-cyclopropyl-4-methyl-5-oxo-5,6,7,8-tetrahydro-4H-pyrazolo[1,5-a][1,3]diazepin-6-yl)-1-((4,4-difluorocyclohexyl)methyl)-1H-1,2,4-triazole-3-carboxamide]

Row | Compound | Ki
16 | CC(C)c1cnc2[nH]nc(C(=O)N[C@H]3COc4ccccc4N(C)C3=O)c2c1 [Example 238, (S)-5-isopropyl-N-(5-methyl-4-oxo-2,3,4,5-tetrahydrobenzo[b][1,4]oxazepin-3-yl)-1H-pyrazolo[3,4-b]pyridine-3-carboxamide] | 54.7 nM

same assay, conditions: tight-binding apparent inhibition constant; human RIP1 kinase domain (2-375) 50 nM, 50 uM ATP, 2 hours; read-out: Ki

Row | Ki | Compound
17 | 3.5 nM | CN1C(=O)[C@@H](NC(=O)c2ncc3cnn(-c4ccccc4)c3n2)COc2ccccc21 [Example 536, phenyl-N-[(3S)-5-methyl-4-oxo-2,3-dihydro-1,5-benzoxazepin-3-yl]pyrazolo[3,4-d]pyrimidine-6-carboxamide]
18 | 318 nM | CN1C(=O)[C@@H](NC(=O)c2nc3n(n2)[C@@H](c2cnn(C)c2)CCC3)CCn2nccc21 (single isomer, unassigned) [Example 404]
19 | 140 nM | Cc1cc2n(n1)CC[C@H](NC(=O)c1nc3n(n1)CCN3c1c(F)cccc1F)C(=O)N2C [Example 649, 4-(2,6-difluorophenyl)-N-[(6S)-2,4-dimethyl-5-oxo-7,8-dihydro-6H-pyrazolo[1,5-a][1,3]diazepin-6-yl]-5,6-dihydroimidazo[1,2-b][1,2,4]triazole-2-carboxamide]
20 | 14 nM | CCC[C@@]1(C)OCc2cnc(C(=O)N[C@H]3COc4cc(F)cc(F)c4NC3=O)nc21 [Example 620, (7R)-7-methyl-7-propyl-N-[(3S)-6,8-difluoro-4-oxo-3,5-dihydro-2H-1,5-benzoxazepin-3-yl]-5H-furo[3,4-d]pyrimidine-2-carboxamide]
21 | 152 nM | CN1C(=O)[C@@H](NC(=O)c2nc3n(n2)C(c2c(F)cccc2F)CCC3)CCn2nccc21 (stereo partly drawn) [Example 396, 5-(2,6-difluorophenyl)-N—((S)-4-methyl-5-oxo-5,6,7,8-tetrahydro-4H-pyrazolo[1,5-a][1,3]diazepin-6-yl)-5,6,7,8-tetrahydro-[1,2,4]triazolo[1,5-a]pyridine-2-carboxamide]
22 | 530 nM | Cc1cc2n(n1)CC[C@H](NC(=O)c1nc3n(n1)[C@H](c1ccccc1F)CC3)C(=O)N2C [Example 667, (5S)-5-(2-fluorophenyl)-N-[(6S)-2,4-dimethyl-5-oxo-7,8-dihydro-6H-pyrazolo[1,5-a][1,3]diazepin-6-yl]-6,7-dihydro-5H-pyrrolo[1,2-b][1,2,4]triazole-2-carboxamide]
23 | 36 nM | CC[C@H]1C[C@@H](Cn2cnc(C(=O)N[C@H]3CCn4nc(C)cc4N(C)C3=O)n2)C1 [Example 500, N—((S)-2,4-dimethyl-5-oxo-5,6,7,8-tetrahydro-4H-pyrazolo[1,5-a][1,3]diazepin-6-yl)-1-(((1R,3R)-3-ethylcyclobutyl)methyl)-1H-1,2,4-triazole-3-carboxamide]
24 | 130 nM | Cc1cc2n(n1)CC[C@H](NC(=O)c1nc3n(n1)CCN3c1ccccc1)C(=O)N2C [Example 636, 4-phenyl-N-[(6S)-2,4-dimethyl-5-oxo-7,8-dihydro-6H-pyrazolo[1,5-a][1,3]diazepin-6-yl]-5,6-dihydroimidazo[1,2-b][1,2,4]triazole-2-carboxamide]
25 | 26 nM | CN1C(=O)[C@H](NC(=O)c2ncn(Cc3cc(F)ccc3F)n2)CCn2cncc21 [Example 507, 1-[(2,5-difluorophenyl)methyl]-N-[(3R)-1-methyl-2-oxo-4,5-dihydro-3H-imidazo[1,5-a][1,3]diazepin-3-yl]-1,2,4-triazole-3-carboxamide]
26 | 9.5 nM | CC(C)n1ncc2cnc(C(=O)N[C@H]3COc4cc(F)cc(F)c4NC3=O)nc21 [Example 605, 1-isopropyl-N-[(3S)-6,8-difluoro-4-oxo-3,5-dihydro-2H-1,5-benzoxazepin-3-yl]pyrazolo[3,4-d]pyrimidine-6-carboxamide]
27 | 14 nM | CN1C(=O)[C@@H](NC(=O)c2ncn(Cc3cccc(F)c3)n2)CCn2nc(C3CC3)cc21 [Example 531]
28 | 115 nM | CN1C(=O)[C@@H](NC(=O)c2ncn(Cc3ccccc3)n2)CCn2nc(CN3CCOCC3)cc21 (single isomer, unassigned) [Example 449]
29 | 22 nM | CN1C(=O)[C@@H](NC(=O)c2nc3n(n2)[C@@H](c2ccccc2F)CC3)CCn2nccc21 [Example 668, (5R)-5-(2-fluorophenyl)-N-[(6S)-4-methyl-5-oxo-7,8-dihydro-6H-pyrazolo[1,5-a][1,3]diazepin-6-yl]-6,7-dihydro-5H-pyrrolo[1,2-b][1,2,4]triazole-2-carboxamide]
30 | 70 nM | CN1C(=O)[C@@H](NC(=O)c2ncc3c(n2)C2(CCCC2)OC3)CCn2nccc21 [Example 565, N-[(6S)-4-methyl-5-oxo-7,8-dihydro-6H-pyrazolo[1,5-a][1,3]diazepin-6-yl]spiro[5H-furo [3,4-d]pyrimidine-7,1′-cyclopentane]-2-carboxamide]
31 | 130 nM | Cc1nc(C)n2c1N(C)C(=O)[C@H](NC(=O)c1ncn(Cc3c(F)cccc3F)n1)CC2 [Example 597, 1-[(2,6-difluorophenyl)methyl]-N-(3R)-1,7,9-trimethyl-2-oxo-4,5-dihydro-3H-imidazo[1,5-a][1,3]diazepin-3-yl-1,2,4-triazole-3-carboxamide]
